Consider 11 compounds from ChEMBL document CHEMBL3351369, “Phenylpropanoid acid esters from Korean propolis and their antioxidant activities” (Bioorg Med Chem Lett, 2014).

Each structure is given as a SMILES string.

The nature of series [1]: Ratio of compound IC50 to trolox IC50 for DPPH radical scavenging activity after 30 mins by spectrophotometry.
The nature of series [2]: Antioxidant activity assessed as DPPH radical scavenging activity up to 1 mM after 30 mins by spectrophotometry. The conditions noted are these: 0.5 h. The format is physicochemical. Background: DPPH is a stable violet radical that fades when it is reduced.
Series [3] in a line: Antioxidant activity assessed as ABTS radical scavenging activity up to 1 mM after 12 hrs by spectrophotometry. It counts as physicochemical.
Series [4] in a line: Ratio of compound IC50 to trolox IC50 for ABTS radical scavenging activity after 12 hrs by spectrophotometry.
Series [5] is described as follows: Antioxidant activity assessed as hydroxyl radical scavenging activity at 50 uM after 30 mins by Fenton reaction-induced DNA single strand breakage method. It counts as physicochemical. The conditions noted are these: 0.5 h.
Series [6] in a line: Antioxidant activity assessed as ABTS radical scavenging activity after 12 hrs by spectrophotometry. It counts as physicochemical.
The nature of series [7]: Antioxidant activity assessed as DPPH radical scavenging activity after 30 mins by spectrophotometry. The format is physicochemical. The conditions noted are these: 0.5 h.

`O=C(/C=C/c1ccc(O)cc1)OCc1ccccc1`: the Ratio IC50 in series [1] and in series [4] was > 500 throughout. Moreover, the Activity result in series [2] and in series [3] was “Not Active” throughout.
On to `O=C(/C=C/c1ccccc1)OC/C=C/c1ccccc1`, for which the Ratio IC50 in series [1] and in series [4] was > 500 in each case. The Activity result in series [2] and in series [3] was “Not Active” each time.
In the case of `COc1cc(/C=C/C(=O)OCC=C(C)C)ccc1O`, the Ratio IC50 in series [1] came to 105; in series [4] it was 23.1. The values for the Activity result in series [5], in series [6] and in series [7] were “Not Active”, “Dose-dependent effect” and “Dose-dependent effect”, respectively.
Consider `O=C(/C=C/c1ccc(O)cc1)OC/C=C/c1ccccc1`, for which the Ratio IC50 in series [1] and in series [4] was > 500 in each case. Further, the Activity result in series [2] and in series [3] was “Not Active” each time.
For the compound `COc1ccc(/C=C/C(=O)OC/C=C/c2ccccc2)cc1OC`, the Ratio IC50 in series [1] and in series [4] was > 500 throughout.
Take `Cc1c(C)c2c(c(C)c1O)CCC(C)(C(=O)O)O2` (stereo not given): the Ratio IC50 in series [1] and in series [4] was 1 each time.
Consider `O=C(/C=C/c1ccc(O)c(O)c1)OCc1ccccc1` [BENZYL CAFFEATE], for which the results for the Ratio IC50 in series [1] and in series [4] were 3.86 and 3.42, respectively. Moreover, the Activity result in series [5] is reported as “Active”; in series [6] it was “Dose-dependent effect”; in series [7] it was “Dose-dependent effect”.
Take `COc1cc(/C=C/C(=O)OCc2ccccc2)ccc1O` [BENZYL FERULATE]: the Ratio IC50 in series [1] stood at 92.1; in series [4] it was 24.8. The Activity entry was “Not Active” in series [5], “Dose-dependent effect” in series [6] and “Dose-dependent effect” in series [7].
Consider `O=C(/C=C/c1ccc(O)c(O)c1)OCCc1ccccc1` [CAFFEIC ACID PHENETHYL ESTER], for which the Ratio IC50 in series [1] came to 0.46; in series [4], 6.3. For the same compound, the Activity result in series [5] is reported as “Active”; in series [6] it was “Dose-dependent effect”; in series [7], “Dose-dependent effect”.
Take `CCOC(=O)/C=C/c1ccc(O)c(O)c1` [ETHYL CAFFEATE]: the Ratio IC50 in series [1] is 6.3; in series [4], 10.6. For the same compound, the Activity result in series [5] is on record as “Active”; in series [6], “Dose-dependent effect”; in series [7], “Dose-dependent effect”.
Consider `O=C(/C=C/c1ccccc1)OCCc1ccccc1` [PHENETHYL CINNAMATE], for which the Ratio IC50 in series [1] and in series [4] was > 500 each time. The Activity entry in series [2] and in series [3] was “Not Active” in each case.
